# Measurements published in patent US12290575B2, “Fluorescent compound comprising a fluorophore conjugated to a pH-triggered polypeptide” (UNIVERSITY OF RHODE ISLAND BOARD OF TRUSTEES, priority 2016, dated 2025).
# Where a SMILES comes first, the peptide text is derived from it. Where no end group is shown, it is not given here. The star is where a group is joined. X1 = CC1(C)C(/C=C/C=C/C=C/C=C2/N(CCCCCC(=O)NCCN3C(=O)CC(*)C3=O)c3ccc4ccccc4c3C2(C)C)=[N+](CCCCS(=O)(=O)[O-])c2ccc3ccccc3c21; ICG maleimide = indocyanine green maleimide
# How the values were obtained:
# [1] = residue X in AcWL-X-LL, relative to virtual glycine; Arg and Lys from pH 1 data; cited from earlier work
# [2] = Fluorescence imaging of blood flow in mice (ear, leg, blood samples); type: in vivo, nude mice; conditions: for fluorescent signal in blood samples: blood withdrawn 5-120 min after IV; for imaging of blood vessels (ear, leg): 100 μL of 40 μM IV, 5, 30, 60, 90, 120 min
# Method: Adult female nude mice (Envigo), 20 g in body mass were used in the study. Fluorescent constructs were given as a single tail vein injection in amounts of 100 μL of 40 μM in PBS. Imaging of mouse ear and leg was performed at 5, 30, 60, 90 and 120 min after construct administration. At 5, 30, 60, 90 and 120 min after construct administration 5 μL of blood was withdrawn from tail (and mixed with 5 μL of anticoagulating solution to preserve blood) while animal was under anesthesia. Mice were euthanized immediately after last imaging point (120 min). Blood collected from all animals was deposited on the glass slide, dried and imaged. Imaging was performed using Novadaq clinical imaging instrument. Autofluorescence was established by imaging mouse with no injection of fluorescent constructs (the level of autofluorescence signal was insignificant compared to the signal after the constructs administration).
# 4T1 tumors = experiment: NIR fluorescence imaging of 4T1 tumors in mice after IV or IP injection; type: in vivo, BALB/cAnNHsd mice; conditions: 16 h
# Method: Adult female nude mice and female BALB/cAnNHsd mice (Envigo), 20-25 g in body mass were used in the study. Mouse mammary cancer 4T1 cells were subcutaneously implanted in the right flank (8×10^5 cells/0.1 mL/flank) of adult female BALB/cAnNHsd mice. Rat bladder cancer AY27 cells were subcutaneously implanted in the right flank (8×10^5 cells/0.1 mL/flank) of adult female nude mice. When tumors reached approximately 5-6 mm in diameter, single tail vein injection or single intraperitoneal injection of fluorophore-pHLIP® solutions in PBS were performed. Fluorescent constructs were used in amounts of 100 μL of 40 μM or 100 μL of 20 μM, or 100 μL of 10 μM, or 100 μL of 5 μM. Imaging of mouse was performed at 16 hours after constructs administration. Skin was removed from the tumor site just before imaging while animal was under gas anesthesia, and mice were euthanized immediately after imaging. Tumor, kidney and liver were harvested, imaged and used for histopathological analysis. Imaging was performed using Stryker clinical imaging instrument. Autofluorescence was established by imaging mouse with no injection of fluorescent constructs (the level of autofluorescence signal was insignificant compared to the signal after the constructs administration).
# [3] = test system: urothelial carcinoma in human bladder specimens; experiment: Ex vivo NIR fluorescence imaging of human bladder specimens after instillation
# Method: 22 urothelial carcinoma patients that were scheduled for radical cystectomy were selected over a twelve month period. After radical cystectomy, bladder specimens were immediately removed and irrigated 3 times for 5 min via catheter with non-buffered saline and instilled and incubated with 80 ml of 8 μM or 32.8 μg/ml (unless otherwise is stated, see notes to Table 8) of ICG-Var3 construct or ICG-Cys in PBS pH 7.4 containing 10 mM D-glucose for 60 minutes. Then, the unbound constructs were removed by rinsing with 80 ml of saline solution 3-5 times, the bladder was irrigated thoroughly with buffered saline and opened using a Y incision on the anterior wall. Using a da Vinci Si near-infrared fluorescence imaging system (Firefly®), ex vivo fluorescent and white light imaging of the entire bladder and its parts was performed. The fluorescent spots were marked and standard pathological analysis was carried out to explore the correlation between appearance of fluorescent signal and cancer lesions.
# The specimen was sectioned and submitted after 24 hour fixation in 10% phosphate-buffered formalin according to the standard institutional grossing manual, with emphasis on the marked areas of the bladder. The sections were processed for routine histology into paraffin-embedded blocks. […]
# Statistical parameters were calculated according to the following equations: […]
# [4] = cited from earlier work
# [5] = current use; cited from earlier work
# [6] = high dose of 5 mg/kg of body weight; cited from earlier work
compound,measurement,setting,value
"C[C@H](N)C(=O)O [Ala, Alanine]",ΔGX^cor (solvation free energy of the side chain),[1],+0.65 kcal/mol
CC[C@H](C)[C@H](NC(=O)[C@@H]1CCCN1C(=O)[C@H](CC(N)=O)NC(=O)[C@H](CCC(N)=O)NC(=O)[C@H](CCC(=O)O)NC(=O)[C@H](CSC1CC(=O)N(CCNC(=O)CCCCCN2/C(=C/C=C/C=C/C=C/C3=[N+](CCCCS(=O)(=O)[O-])c4ccc5ccccc5c4C3(C)C)C(C)(C)c3c2ccc2ccccc32)C1=O)NC(=O)[C@H](C)N)C(=O)N[C@@H](Cc1ccc(O)cc1)C(=O)N[C@@H](Cc1c[nH]c2ccccc12)C(=O)N[C@@H](C)C(=O)N[C@@H](CCCNC(=N)N)C(=O)N[C@@H](Cc1ccc(O)cc1)C(=O)N[C@@H](C)C(=O)N[C@@H](CC(N)=O)C(=O)N[C@@H](Cc1c[nH]c2ccccc12)C(=O)N[C@@H](CC(C)C)C(=O)N[C@@H](Cc1ccccc1)C(=O)N[C@H](C(=O)N[C@H](C(=O)N1CCC[C@H]1C(=O)N[C@@H](CC(C)C)C(=O)N[C@@H](CC(C)C)C(=O)N[C@@H](CC(C)C)C(=O)N[C@@H](CC(C)C)C(=O)N[C@@H](CC(N)=O)C(=O)N[C@@H](CC(C)C)C(=O)N[C@@H](C)C(=O)N[C@@H](CC(C)C)C(=O)N[C@@H](CC(C)C)C(=O)N[C@H](C(=O)N[C@@H](CC(=O)O)C(=O)N[C@@H](C)C(=O)N[C@@H](CC(=O)O)C(=O)N[C@@H](CCC(=O)O)C(=O)NCC(=O)N[C@H](C(=O)O)[C@@H](C)O)C(C)C)[C@@H](C)O)[C@@H](C)O (stereo partly drawn) [ICG-NpHLIP®] (H-AC(X1)EQNPIYWARYANWLFTTPLLLLNLALLVDADEGT-OH),fluorescent signal in blood samples,[2],significantly reduced signal
"NC(=O)C[C@H](N)C(=O)O [Asn, Asparagine]",ΔGX^cor (solvation free energy of the side chain),[1],+0.30 kcal/mol
CC[C@H](C)[C@H](NC(=O)[C@@H]1CCCN1C(=O)[C@H](CC(N)=O)NC(=O)[C@H](CCC(N)=O)NC(=O)[C@H](CCC(=O)O)NC(=O)[C@H](CSC1CC(=O)N(CCNC(=O)CCCCCN2/C(=C/C=C/C=C/C=C/C3=[N+](CCCCS(=O)(=O)[O-])c4ccc5ccccc5c4C3(C)C)C(C)(C)c3c2ccc2ccccc32)C1=O)NC(=O)[C@H](C)N)C(=O)N[C@@H](Cc1ccc(O)cc1)C(=O)N[C@@H](Cc1c[nH]c2ccccc12)C(=O)N[C@@H](C)C(=O)N[C@@H](CCCNC(=N)N)C(=O)N[C@@H](Cc1ccc(O)cc1)C(=O)N[C@@H](C)C(=O)N[C@@H](CC(=O)O)C(=O)N[C@@H](Cc1c[nH]c2ccccc12)C(=O)N[C@@H](CC(C)C)C(=O)N[C@@H](Cc1ccccc1)C(=O)N[C@H](C(=O)N[C@H](C(=O)N1CCC[C@H]1C(=O)N[C@@H](CC(C)C)C(=O)N[C@@H](CC(C)C)C(=O)N[C@@H](CC(C)C)C(=O)N[C@@H](CC(C)C)C(=O)N[C@@H](CC(=O)O)C(=O)N[C@@H](CC(C)C)C(=O)N[C@@H](C)C(=O)N[C@@H](CC(C)C)C(=O)N[C@@H](CC(C)C)C(=O)N[C@H](C(=O)N[C@@H](CC(=O)O)C(=O)N[C@@H](C)C(=O)N[C@@H](CC(=O)O)C(=O)N[C@@H](CCC(=O)O)C(=O)NCC(=O)N[C@H](C(=O)O)[C@@H](C)O)C(C)C)[C@@H](C)O)[C@@H](C)O (stereo partly drawn) [ICG-WT pHLIP®],fluorescent signal in blood samples,[2],persistence of strong fluorescent signal within 2 hours
"N[C@@H](CO)C(=O)O [Ser, Serine]",ΔGX^cor (solvation free energy of the side chain),[1],+0.69 kcal/mol
"C[C@@H](O)[C@H](N)C(=O)O [Thr, Threonine]",ΔGX^cor (solvation free energy of the side chain),[1],+0.90 kcal/mol
"N=C(N)NCCC[C@H](N)C(=O)O [Arg, Arginine]",ΔGX^cor (solvation free energy of the side chain),[1],-0.66 kcal/mol
ICG-Hum pHLIP®: ICG maleimide conjugated to the Cys of Hum pHLIP® GCDNNEGFFATLGGEIPLWSDVVLAIEG (SEQ ID NO: 446) (GC(ICG maleimide)DNNEGFFATLGGEIPLWSDVVLAIEG),"imaging of blood vessels (ear, leg)",[2],slow in reaching the best imagibility condition and was fast in decaying
CC(C)C[C@H](NC(=O)[C@H](Cc1ccc(O)cc1)NC(=O)[C@H](C)NC(=O)[C@H](CCCNC(=N)N)NC(=O)[C@H](Cc1c[nH]c2ccccc12)NC(=O)[C@@H]1CCCN1C(=O)[C@H](CC(N)=O)NC(=O)[C@H](CCC(N)=O)NC(=O)[C@H](CC(=O)O)NC(=O)[C@H](CC(=O)O)NC(=O)[C@H](CSC1CC(=O)N(CCNC(=O)CCCCCN2/C(=C/C=C/C=C/C=C/C3=[N+](CCCCS(=O)(=O)[O-])c4ccc5ccccc5c4C3(C)C)C(C)(C)c3c2ccc2ccccc32)C1=O)NC(=O)[C@H](C)N)C(=O)N[C@@H](CC(=O)O)C(=O)N[C@@H](CC(C)C)C(=O)N[C@@H](CC(C)C)C(=O)N[C@@H](Cc1ccccc1)C(=O)N1CCC[C@H]1C(=O)N[C@H](C(=O)N[C@@H](CC(=O)O)C(=O)N[C@H](C(=O)N[C@@H](CC(C)C)C(=O)N[C@@H](CC(C)C)C(=O)N[C@@H](CC(C)C)C(=O)N[C@@H](CC(=O)O)C(=O)N[C@@H](CC(C)C)C(=O)N[C@@H](CC(C)C)C(=O)N[C@@H](Cc1c[nH]c2ccccc12)C(=O)N[C@@H](C)C(=O)O)[C@@H](C)O)[C@@H](C)O (stereo partly drawn) [ICG-Var3] (H-AC(X1)DDQNPWRAYLDLLFPTDTLLLDLLWA-OH),fluorescent signal in blood samples,[2],persistence of strong fluorescent signal within 2 hours
same,fluorescent signal in tumor relative to kidney and liver,4T1 tumors,signal in tumor was higher than in kidney and similar or slightly less than in liver
same,adverse morphological findings in specimens after incubation,[3],did not show any adverse morphological findings
IR800-WT pHLIP®: IR800 maleimide conjugated to the Cys of WT pHLIP® (SEQ ID NO: 444) (AC(IR800 maleimide)EQNPIYWARYADWLFTTPLLLLDLALLVDADEGT),"imaging of blood vessels (ear, leg)",[2],"better in imaging of blood vessels, however not nearly as good as ICG-WT and ICG-Var3 pHLIP®s"
"CC1(C)C(/C=C/C=C/C=C/C=C2\N(CCCCS(=O)(=O)[O-])c3ccc4ccccc4c3C2(C)C)=[N+](CCCCS(=O)(=O)[O-])c2ccc3ccccc3c21.[Na+] [ICG, indocyanine green]",blood clearance,[4]; half lifetime is just few minutes,fast blood clearance
same,metabolites,[4]; in vivo,no known metabolites
same,time after which it binds to the regional lymph nodes,[4]; injected outside blood vessels,1 to 2 h
same,time of appearing unconjugated in the bile after injection,"[4]; intravenous injection, depends on liver vascularization and function",about 8 min
same,imaging time used for free ICG,[5],2 to 5 min
same,toxic effects,[6],No significant toxic effects
